pIC50: −log10 of the molar value. Calls of active or inactive are those of the source. No cut-off for these calls is given here.
How the values were obtained:
cells = conditions: Mus musculus, Sal
[1] = target: Cyclin-dependent kinase 2/cyclin E (Homo sapiens, UniProt P24941); test: Inhibition of CDK2/Cyclin E after 60 mins by fluorescence electrophoresis; format: protein-complex assay
[2] = Antitumor activity against mouse Sal cells xenografted in po dosed BALB/c mouse assessed as minimum effective dose required for complete tumor growth inhibition administered BID 8 hrs apart measured within 5 days; format: functional; conditions: read-out: MED
[3] = Antitumor activity against mouse Sal cells xenografted in BALB/c mouse assessed as tumor growth inhibition at 6 to 25 mg/kg, po BID administered 8 hrs apart measured within 5 days; format: functional; conditions: dose mg/kg 6-25
Mus musculus [4] = test: Toxicity in BALB/c mouse xenografted with mouse Sal cells assessed as change in body weight at 25 mg/kg, po BID administered 8 hrs apart measured within 5 days relative to control; format: organism-based; design: dose 25 mg/kg, route oral; conditions: in vivo
[5] = target: Insulin-like growth factor 1 receptor (Homo sapiens, UniProt P08069); test: Inhibition of IGF1R after 60 mins by fluorescence electrophoresis
[6] = Plasma protein binding in mouse; format: ADME, cell-free; conditions: read-out: PPB (converted)
[7] = Total clearance in iv dosed monkey; format: ADME, organism-based, Macaca mulatta; conditions: rhesus monkey, in vivo
[8] = target: RAC-alpha serine/threonine-protein kinase (Mus musculus, UniProt P31750); test: Inhibition of Akt phosphorylation in mouse Sal cells by Western blotting; format: cell-based
Mus musculus [9] = test: Inhibition of IGF1R phosphorylation in po dosed BALB/c mouse xenografted with mouse Sal cells at 3.125 to 12.5 mg/kg, po BID for 4 days measured 2 hrs after final dose on day 5 by Western blot analysis; format: functional, organism-based
[10] = Permeability by PAMPA; format: ADME; conditions: read-out: permeability
Cytochrome P450 2D6 = Cytochrome P450 2D6 (Homo sapiens, UniProt P10635); test: Inhibition of CYP2D6; format: ADME
[11] = Permeability across human Caco-2 cells; format: ADME, cell-based; conditions: read-out: permeability
[12] = Total clearance in iv dosed dog; format: ADME, organism-based, Canis lupus familiaris; conditions: in vivo
[13] = Antitumor activity against mouse Sal cells xenografted in BALB/c mouse assessed as tumor growth inhibition at 12.5 mg/kg, po BID for 4 days measured 2 hrs after final dose on day 5; format: functional; conditions: read-out: TGI
[14] = target: Macrophage-stimulating protein receptor (Homo sapiens) (UniProt Q04912); test: Inhibition of Ron
[15] = Antitumor activity against mouse Sal cells xenografted in BALB/c mouse assessed as tumor growth inhibition at 3.125 mg/kg, po BID for 4 days measured 2 hrs after final dose on day 5; format: functional; conditions: read-out: TGI
[16] = Total clearance in iv dosed rat; format: ADME, organism-based; conditions: in vivo
[17] = Antitumor activity against mouse Sal cells xenografted in BALB/c mouse assessed as tumor growth inhibition at 6.25 mg/kg, po BID for 4 days measured 2 hrs after final dose on day 5; format: functional; conditions: read-out: TGI
Cytochrome P450 2C19 = Cytochrome P450 2C19 (Homo sapiens, UniProt P33261); test: Inhibition of CYP2C19; format: ADME
[18] = target: BDNF/NT-3 growth factors receptor (Homo sapiens) (UniProt Q16620); test: Inhibition of TrkB
[19] = Bioavailability in iv dosed monkey; format: ADME, organism-based, Macaca mulatta; conditions: rhesus monkey, in vivo
[20] = Total clearance in iv dosed mouse; format: ADME, organism-based; conditions: in vivo
[21] = target: High affinity nerve growth factor receptor (Homo sapiens) (UniProt P04629); test: Inhibition of TrkA
Mus musculus [22] = test: Inhibition of Akt phosphorylation in po dosed BALB/c mouse xenografted with mouse Sal cells at 3.125 to 12.5 mg/kg, po BID for 4 days measured 2 hrs after final dose on day 5 by Western blot analysis; format: functional, organism-based
Mus musculus [23] = test: Toxicity in BALB/c mouse xenografted with mouse Sal cells assessed as body weight loss at 25 mg/kg, po BID administered 8 hrs apart for 4 consecutive days measured within 5 days; format: organism-based; design: dose 25 mg/kg, route oral; conditions: in vivo
[24] = target: Insulin receptor (Mus musculus) (UniProt P15208); test: Inhibition of insulin receptor phosphorylation in mouse Sal cells at 0.003 to 1 uM by Western blotting; format: cell-based
[25] = target: Aurora kinase B (Homo sapiens) (UniProt Q96GD4); test: Inhibition of Aurora B
[26] = Bioavailability in iv dosed rat; format: ADME, organism-based; conditions: in vivo
[27] = Bioavailability in iv dosed dog; format: ADME, organism-based, Canis lupus familiaris; conditions: in vivo
[28] = In vivo antitumor activity against human Rh41 cells assessed as tumor growth inhibition at 12.5 mg/kg BID for 14 consecutive days measured on day 60 post tumor implantation; format: functional; conditions: Rh41, 1440 h, read-out: TGI
Cytochrome P450 2C9 = Cytochrome P450 2C9 (Homo sapiens, UniProt P11712); test: Inhibition of CYP2C9; format: ADME
Cytochrome P450 1A2 = Cytochrome P450 1A2 (Homo sapiens, UniProt P05177); test: Inhibition of CYP1A2; format: ADME
[29] = Bioavailability in iv dosed mouse; format: ADME, organism-based; conditions: in vivo

Sequence of Macrophage-stimulating protein receptor (Homo sapiens) (Q04912 25-304 limits assumed): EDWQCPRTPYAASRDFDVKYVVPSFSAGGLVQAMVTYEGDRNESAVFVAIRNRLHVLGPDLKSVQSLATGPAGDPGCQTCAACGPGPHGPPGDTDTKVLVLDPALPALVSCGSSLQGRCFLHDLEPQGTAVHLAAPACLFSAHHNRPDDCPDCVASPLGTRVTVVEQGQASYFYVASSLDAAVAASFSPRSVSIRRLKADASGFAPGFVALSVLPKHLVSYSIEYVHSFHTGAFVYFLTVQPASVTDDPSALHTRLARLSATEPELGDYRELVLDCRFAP
Sequence of Macrophage-stimulating protein receptor (Homo sapiens) (Q04912 310-1400 limits assumed): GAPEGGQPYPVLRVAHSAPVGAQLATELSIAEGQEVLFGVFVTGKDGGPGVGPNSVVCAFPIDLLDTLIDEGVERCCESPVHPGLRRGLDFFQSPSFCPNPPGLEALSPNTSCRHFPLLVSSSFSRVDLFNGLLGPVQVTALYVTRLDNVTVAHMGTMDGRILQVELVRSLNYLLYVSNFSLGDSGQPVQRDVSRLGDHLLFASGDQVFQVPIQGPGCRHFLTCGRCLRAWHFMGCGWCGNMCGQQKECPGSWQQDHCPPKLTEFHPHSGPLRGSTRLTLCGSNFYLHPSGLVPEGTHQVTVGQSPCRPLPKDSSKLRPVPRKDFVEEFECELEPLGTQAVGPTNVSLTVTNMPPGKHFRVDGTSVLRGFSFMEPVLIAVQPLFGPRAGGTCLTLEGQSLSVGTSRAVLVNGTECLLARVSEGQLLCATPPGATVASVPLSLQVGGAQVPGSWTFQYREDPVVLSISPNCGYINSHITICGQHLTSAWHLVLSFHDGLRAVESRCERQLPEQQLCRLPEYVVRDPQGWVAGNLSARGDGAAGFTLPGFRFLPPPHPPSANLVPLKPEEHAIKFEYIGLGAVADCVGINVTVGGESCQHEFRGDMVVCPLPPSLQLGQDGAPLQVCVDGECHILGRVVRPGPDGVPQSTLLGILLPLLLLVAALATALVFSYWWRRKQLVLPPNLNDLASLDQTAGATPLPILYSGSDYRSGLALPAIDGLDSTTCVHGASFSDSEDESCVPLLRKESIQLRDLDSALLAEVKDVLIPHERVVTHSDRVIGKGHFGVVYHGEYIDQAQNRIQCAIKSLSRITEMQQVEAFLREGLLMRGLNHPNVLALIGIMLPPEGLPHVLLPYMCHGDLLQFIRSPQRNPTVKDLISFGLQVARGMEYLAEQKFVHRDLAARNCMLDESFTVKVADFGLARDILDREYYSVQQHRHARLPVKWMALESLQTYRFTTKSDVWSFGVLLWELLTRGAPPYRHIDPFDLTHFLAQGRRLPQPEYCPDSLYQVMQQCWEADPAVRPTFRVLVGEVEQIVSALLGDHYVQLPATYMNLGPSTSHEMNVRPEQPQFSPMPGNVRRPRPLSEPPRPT
Sequence of Insulin receptor (Mus musculus) (P15208 28-748 limits assumed): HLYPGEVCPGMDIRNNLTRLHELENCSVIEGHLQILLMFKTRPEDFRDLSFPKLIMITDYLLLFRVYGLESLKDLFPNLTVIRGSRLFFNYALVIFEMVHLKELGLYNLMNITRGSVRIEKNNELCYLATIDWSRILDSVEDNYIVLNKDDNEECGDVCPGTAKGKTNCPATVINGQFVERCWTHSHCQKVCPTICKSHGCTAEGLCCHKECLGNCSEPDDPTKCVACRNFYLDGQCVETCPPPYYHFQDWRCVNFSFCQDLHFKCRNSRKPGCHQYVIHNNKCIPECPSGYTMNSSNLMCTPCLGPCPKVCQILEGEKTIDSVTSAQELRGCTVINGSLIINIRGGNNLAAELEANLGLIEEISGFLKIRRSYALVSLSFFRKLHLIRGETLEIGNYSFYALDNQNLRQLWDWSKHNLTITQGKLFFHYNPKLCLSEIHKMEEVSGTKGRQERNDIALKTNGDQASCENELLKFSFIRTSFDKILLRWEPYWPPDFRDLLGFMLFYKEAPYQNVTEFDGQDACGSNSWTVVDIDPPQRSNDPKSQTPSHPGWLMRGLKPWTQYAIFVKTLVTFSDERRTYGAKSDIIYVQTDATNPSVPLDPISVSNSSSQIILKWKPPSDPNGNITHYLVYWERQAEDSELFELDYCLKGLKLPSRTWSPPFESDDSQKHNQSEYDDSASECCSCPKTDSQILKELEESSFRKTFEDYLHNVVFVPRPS
Sequence of Insulin receptor (Mus musculus) (P15208 753-1372 limits assumed): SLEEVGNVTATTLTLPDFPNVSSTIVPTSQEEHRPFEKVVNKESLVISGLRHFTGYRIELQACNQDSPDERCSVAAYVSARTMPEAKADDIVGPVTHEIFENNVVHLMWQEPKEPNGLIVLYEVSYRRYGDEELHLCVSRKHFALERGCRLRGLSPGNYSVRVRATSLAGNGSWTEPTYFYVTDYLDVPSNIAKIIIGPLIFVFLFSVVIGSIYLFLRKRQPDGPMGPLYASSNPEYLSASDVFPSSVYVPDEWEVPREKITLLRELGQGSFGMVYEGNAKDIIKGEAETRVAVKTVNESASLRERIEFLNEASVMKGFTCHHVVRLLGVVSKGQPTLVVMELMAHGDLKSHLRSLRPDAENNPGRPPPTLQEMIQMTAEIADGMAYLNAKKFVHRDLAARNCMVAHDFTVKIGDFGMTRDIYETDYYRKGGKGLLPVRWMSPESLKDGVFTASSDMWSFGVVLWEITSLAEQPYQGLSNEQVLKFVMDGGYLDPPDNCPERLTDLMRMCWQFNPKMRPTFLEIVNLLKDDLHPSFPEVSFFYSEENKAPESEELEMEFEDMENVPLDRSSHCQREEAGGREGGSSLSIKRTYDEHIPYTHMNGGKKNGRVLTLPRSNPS
Sequence of BDNF/NT-3 growth factors receptor (Homo sapiens) (Q16620 32-822 limits assumed): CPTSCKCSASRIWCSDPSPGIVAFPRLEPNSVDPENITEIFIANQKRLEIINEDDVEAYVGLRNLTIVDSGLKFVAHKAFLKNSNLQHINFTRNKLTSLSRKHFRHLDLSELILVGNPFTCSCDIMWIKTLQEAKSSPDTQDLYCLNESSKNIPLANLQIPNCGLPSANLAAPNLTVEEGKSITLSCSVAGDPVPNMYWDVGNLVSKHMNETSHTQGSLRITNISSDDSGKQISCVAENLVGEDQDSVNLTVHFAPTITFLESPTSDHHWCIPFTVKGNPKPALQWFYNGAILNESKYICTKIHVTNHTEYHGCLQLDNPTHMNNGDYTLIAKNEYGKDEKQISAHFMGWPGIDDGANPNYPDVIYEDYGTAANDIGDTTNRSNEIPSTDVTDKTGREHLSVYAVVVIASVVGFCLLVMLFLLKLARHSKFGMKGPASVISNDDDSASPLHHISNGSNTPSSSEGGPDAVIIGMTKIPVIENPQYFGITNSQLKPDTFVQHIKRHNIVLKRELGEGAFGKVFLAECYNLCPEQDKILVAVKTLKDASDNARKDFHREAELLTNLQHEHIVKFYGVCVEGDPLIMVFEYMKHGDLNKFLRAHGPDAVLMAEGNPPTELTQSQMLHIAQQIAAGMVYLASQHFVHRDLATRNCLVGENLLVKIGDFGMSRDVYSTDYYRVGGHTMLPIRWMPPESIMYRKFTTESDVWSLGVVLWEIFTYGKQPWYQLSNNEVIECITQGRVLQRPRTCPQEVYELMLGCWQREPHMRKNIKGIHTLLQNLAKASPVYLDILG
Sequence of Cytochrome P450 2D6 (P10635 whole entry): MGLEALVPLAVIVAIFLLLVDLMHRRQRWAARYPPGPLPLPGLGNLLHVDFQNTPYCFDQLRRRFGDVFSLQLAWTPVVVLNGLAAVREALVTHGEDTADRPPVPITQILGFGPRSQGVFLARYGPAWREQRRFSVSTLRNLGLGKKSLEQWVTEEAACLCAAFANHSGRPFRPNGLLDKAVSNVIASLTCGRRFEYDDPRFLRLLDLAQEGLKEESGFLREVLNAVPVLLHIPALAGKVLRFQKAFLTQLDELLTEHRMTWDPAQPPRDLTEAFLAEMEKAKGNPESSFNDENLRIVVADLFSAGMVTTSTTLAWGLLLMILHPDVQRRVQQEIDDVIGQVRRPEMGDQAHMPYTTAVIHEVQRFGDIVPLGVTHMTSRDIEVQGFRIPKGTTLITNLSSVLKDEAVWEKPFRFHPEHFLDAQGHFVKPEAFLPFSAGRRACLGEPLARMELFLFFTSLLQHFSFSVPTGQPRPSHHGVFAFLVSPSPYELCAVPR
Sequence of Cytochrome P450 2C19 (P33261 whole entry): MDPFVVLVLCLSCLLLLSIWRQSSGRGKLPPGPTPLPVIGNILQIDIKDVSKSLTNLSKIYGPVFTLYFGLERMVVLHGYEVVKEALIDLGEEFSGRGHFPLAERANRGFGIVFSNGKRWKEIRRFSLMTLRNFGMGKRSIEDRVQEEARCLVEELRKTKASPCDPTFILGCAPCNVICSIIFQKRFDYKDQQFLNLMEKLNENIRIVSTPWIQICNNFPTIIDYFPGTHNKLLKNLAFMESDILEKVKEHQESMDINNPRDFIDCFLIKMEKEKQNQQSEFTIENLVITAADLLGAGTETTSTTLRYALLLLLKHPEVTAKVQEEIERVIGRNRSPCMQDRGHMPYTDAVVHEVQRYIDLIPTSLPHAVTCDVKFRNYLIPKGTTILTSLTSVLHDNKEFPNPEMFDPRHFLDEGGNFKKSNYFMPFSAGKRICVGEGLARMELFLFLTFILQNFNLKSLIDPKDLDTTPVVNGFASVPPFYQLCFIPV
Sequence of RAC-alpha serine/threonine-protein kinase (P31750 whole entry): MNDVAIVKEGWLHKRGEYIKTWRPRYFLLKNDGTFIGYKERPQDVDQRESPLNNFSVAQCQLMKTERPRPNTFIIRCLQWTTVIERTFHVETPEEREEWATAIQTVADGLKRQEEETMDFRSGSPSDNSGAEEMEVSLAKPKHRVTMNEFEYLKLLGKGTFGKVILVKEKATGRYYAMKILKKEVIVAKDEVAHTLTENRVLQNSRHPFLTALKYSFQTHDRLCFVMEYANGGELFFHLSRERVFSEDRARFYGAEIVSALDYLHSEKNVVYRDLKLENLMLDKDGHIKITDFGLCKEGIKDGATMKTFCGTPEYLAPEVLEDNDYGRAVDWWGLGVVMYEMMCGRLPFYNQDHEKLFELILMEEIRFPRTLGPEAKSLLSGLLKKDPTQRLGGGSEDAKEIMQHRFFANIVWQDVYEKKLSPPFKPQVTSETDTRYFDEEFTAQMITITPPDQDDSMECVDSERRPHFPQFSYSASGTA

O=C(Nc1ccccc1)[C@@H]1CCCN1c1nc(Nc2cc(C3CC3)[nH]n2)c2cccn2n1
pIC50 (cells): 6.88
pIC50 [1]: 6.49

Cc1ccc(NC(=O)[C@@H]2CCCN2c2nc(Nc3cc(C4CC4)[nH]n3)c3cccn3n2)cc1
pIC50 (cells): 6.37
pIC50 [1]: 5.85

O=C(Nc1nccs1)[C@@H]1CCCN1c1nc(Nc2cc(C3CC3)[nH]n2)c2cccn2n1
pIC50 (cells): 7.16
pIC50 [1]: 7.40

O=C(Nc1cccnc1)[C@@H]1CCCN1c1nc(Nc2cc(C3CC3)[nH]n2)c2cccn2n1
pIC50 (cells): 7.41
pIC50 [1]: 6.24

C[C@@]1(C(=O)Nc2cccnc2)CCCN1c1nc(Nc2cc(C3CC3)[nH]n2)c2cccn2n1
pIC50 (cells): 7.62
minimal effective dose [2]: 25 mg/kg
pIC50 [1]: 5.84
TGI [3]: 76%
Activity (Mus musculus [4]): 1.9 g
pIC50 [5]: 8.22

NC(=O)[C@H]1CCCN1c1nc(Nc2cc(C3CC3)[nH]n2)c2cccn2n1
pIC50 (cells): 6.51
pIC50 [1]: 7.62

C[C@@]1(C(=O)Nc2ccc(F)nc2)CCCN1c1nc(Nc2cc(C3CC3)n[nH]2)c2cccn2n1 [BMS-754807]
fraction unbound [6]: 0.015
clearance [7]: 41 mL/min/kg
pIC50 [8]: 7.66
inhibition (Mus musculus [9]): Active
Papp [10]: 38.7 ×10⁻⁶ cm/s
pIC50 (Cytochrome P450 2D6): < 4.40
Papp [11]: 14.1 ×10⁻⁶ cm/s
clearance [12]: 3.5 mL/min/kg
inhibition in vivo at 12.5 mg/kg [13]: 110%
inhibition [14]: Active
inhibition in vivo at 3.125 mg/kg [15]: 80%
minimal effective dose [2]: 6.25 mg/kg
clearance [16]: 20 mL/min/kg
inhibition in vivo at 6.25 mg/kg [17]: 107%
pIC50 (Cytochrome P450 2C19): 4.96
inhibition [18]: Active
bioavailability [19]: 8%
clearance [20]: 113 mL/min/kg
inhibition [21]: Active
inhibition (Mus musculus [22]): Active
Activity (Mus musculus [23]): > 10%
Activity [24]: Active
TGI [3]: 102%
inhibition [25]: Active
bioavailability [26]: 30%
bioavailability [27]: 59%
inhibition in vivo at 12.5 mg/kg [28]: 115%
pIC50 (Cytochrome P450 2C9): 4.64
pIC50 (Cytochrome P450 1A2): < 4.40
Activity (Mus musculus [4]): 0.2 g
bioavailability [29]: 6%

C[C@@]1(C(=O)Nc2nccs2)CCCN1c1nc(Nc2cc(C3CC3)n[nH]2)c2cccn2n1
minimal effective dose [2]: 12.5 mg/kg
TGI [3]: 74%
Activity (Mus musculus [4]): 0.3 g

C[C@@]1(C(=O)Nc2cnccn2)CCCN1c1nc(Nc2cc(C3CC3)[nH]n2)c2cccn2n1
minimal effective dose [2]: 6.25 mg/kg
TGI [3]: 113%
Activity (Mus musculus [4]): -3.6 g

CN(C(=O)[C@@H]1CCCN1c1nc(Nc2cc(C3CC3)[nH]n2)c2cccn2n1)c1ccccc1
pIC50 [1]: 6.70

NC(=O)[C@@H]1CCCN1c1nc(Nc2cc(C3CC3)[nH]n2)c2cccn2n1
pIC50 (cells): 7.33
pIC50 [1]: 8.70
